Results on eleven compounds are retold here after patent publication US20240116985A1, “STAPLED PEPTIDES AND METHODS THEREOF” (priority 2020, published 2024).

One data set in a line: CHI Log D procedure. It is filed as physicochemical. Conditions: pH 7.4.
The target of data set [1] is T1, full-length B-Catenin (Uniprot ID P35222) (Homo sapiens, UniProt P35222).
T1 construct: 65 nM full-length B-Catenin (Uniprot ID P35222)
T1 sequence (P35222 1-781): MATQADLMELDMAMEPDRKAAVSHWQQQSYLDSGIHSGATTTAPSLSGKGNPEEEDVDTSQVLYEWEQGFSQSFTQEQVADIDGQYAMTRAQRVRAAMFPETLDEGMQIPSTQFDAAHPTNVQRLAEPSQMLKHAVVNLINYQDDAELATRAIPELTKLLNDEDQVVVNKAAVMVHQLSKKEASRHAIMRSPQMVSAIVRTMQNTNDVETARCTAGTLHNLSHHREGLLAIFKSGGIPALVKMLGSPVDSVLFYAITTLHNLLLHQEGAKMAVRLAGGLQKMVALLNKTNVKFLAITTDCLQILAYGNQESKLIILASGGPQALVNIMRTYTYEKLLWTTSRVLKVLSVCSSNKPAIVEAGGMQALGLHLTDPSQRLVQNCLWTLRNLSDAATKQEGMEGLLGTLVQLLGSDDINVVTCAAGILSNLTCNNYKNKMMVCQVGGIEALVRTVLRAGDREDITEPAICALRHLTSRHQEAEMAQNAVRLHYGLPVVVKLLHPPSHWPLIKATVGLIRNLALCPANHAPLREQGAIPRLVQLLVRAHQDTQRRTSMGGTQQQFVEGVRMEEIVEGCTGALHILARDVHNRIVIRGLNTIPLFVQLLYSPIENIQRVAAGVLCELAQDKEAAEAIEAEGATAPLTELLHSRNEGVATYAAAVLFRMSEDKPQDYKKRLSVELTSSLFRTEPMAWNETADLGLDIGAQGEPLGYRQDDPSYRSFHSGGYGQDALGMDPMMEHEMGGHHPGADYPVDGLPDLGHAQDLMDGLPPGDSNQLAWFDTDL
Put plainly: Alphascreen binding assay (beta-catenin / biotin-TCF4 10-53). As to the method: In some embodiments, an assay is an Alphascreen binding assay. A useful protocol is described below as an example.
Alphascreen binding assay: Using the AlphaScreen Histidine (Nickel Chelate) Detection Kit (PerkinElmer), peptide solutions were prepared in buffer (50 mM Tris pH 8.0, 250 mM NaCl, 2% glycerol, 0.03% Tween-20, 0.01% TritonX-100, 0.1% BSA w/v) using a 3-fold serial dilution from 10 uM to 5 nM. Probe solution (65 nM full-length B-Catenin (Uniprot ID P35222), mixed with 10 nM biotin labeled TCF4 residues 10-53 (Uniprot ID Q9NQB0) peptide in buffer) was prepared and 4 uL per well was plated in a white polystyrene 384-well plate (Corning). Equal volume of the titrated peptide was added to the plate and incubated for 15 minutes at 20° C. Then 4 uL of donor and 4 uL acceptor beads at 10 ug/mL were added to the plate, for a 16 uL reaction pool and protected from light for 60 minutes at 20° C. prior to read. Reads were performed on a CLARIOstar plate reader (BMG Labtech) in duplicate, and data were fitted to a 1:1 binding model with hill slope using an in-house script. All provided concentrations are final concentrations.
In general terms: In Alpha technology, singlet oxygen from a donor bead excites a nearby acceptor bead.

Structures are written as SMILES.

Take `CC(=O)N[C@@H](Cc1ccccc1)C(=O)N[C@@H](CC(=O)O)C(=O)N[C@@H](C)C(=O)N[C@]1(C)CCCCCCC=CCOC(=O)N2CC[C@@](C(=O)N[C@@H](Cc3ccccc3)C(=O)N[C@@H](Cc3c[nH]c4ccccc34)C(=O)N[C@@H](CCC(N)=O)C(N)=O)(C2)NC(=O)[C@H](C(C)C)NC(=O)[C@H](Cc2ccccc2)NC(=O)[C@H](C)NC(=O)[C@H](C)NC(=O)[C@H](CCc2ccccc2)NC(=O)[C@H](CC(=O)O)NC1=O` [I-97, Ac-Phe-Asp-Ala-R8-Asp-hPhe-Ala-Ala-Phe-Val-PyrS-Phe-Trp-Gln-NH2]: the “CHI Log D” value in the data set “CHI Log D procedure” was 2.062. Also, the response in data set [1] was half-maximal at 7.01 µM (EC50).

On to `COc1cccc(C[C@@H]2NC(=O)[C@H](C)NC(=O)[C@H](C)NC(=O)[C@H](CC(=O)O)NC(=O)[C@H](CC(=O)O)NC(=O)[C@](C)(NC(=O)[C@H](C)NC(=O)[C@H](CC(=O)O)NC(=O)[C@H](Cc3ccccc3)NC(C)=O)CCCCCCC=CCOC(=O)N3CC[C@@](C(=O)N[C@@H](Cc4ccccc4)C(=O)N[C@@H](Cc4c[nH]c5ccccc45)C(=O)N[C@@H](CCC(N)=O)C(N)=O)(C3)NC(=O)[C@H](C(C)C)NC2=O)c1` [I-103, Ac-Phe-Asp-Ala-R8-Asp-Asp-Ala-Ala-3OMeF-Val-PyrS-Phe-Trp-Gln-NH2], for which the “CHI Log D” value in “CHI Log D procedure” amounted to 1.268. Moreover, the half-maximal effective concentration (EC50) – broadly, the concentration giving half of the maximal effect – in data set [1] is 4.94 µM.

For `COc1cccc(C[C@@H]2NC(=O)[C@H](C)NC(=O)[C@H](C)NC(=O)[C@H](CC(=O)O)NC(=O)[C@H](CC(=O)O)NC(=O)[C@](C)(NC(=O)[C@H](C)NC(=O)[C@H](CC(=O)O)NC(=O)[C@H](Cc3ccccc3)NC(C)=O)CCCCCCC=CCOC(=O)N3CC[C@@](C(=O)N[C@@H](Cc4ccccc4)C(=O)N[C@@H](Cc4c[nH]c5ccccc45)C(=O)N[C@@H](CCC(N)=O)C(N)=O)(C3)NC(=O)[C@H](C(C)C)NC2=O)c1` [I-104, Ac-Phe-Asp-Ala-R8-Asp-Asp-Ala-Ala-3OMeF-Val-PyrS-Phe-Trp-Gln-NH2], the “CHI Log D” value in “CHI Log D procedure” is given as 1.333. In addition, in data set [1], the response was half-maximal at 6.17 µM (EC50).

`CC(=O)N[C@@H](Cc1ccccc1)C(=O)N[C@@H](CC(=O)O)C(=O)N[C@@H](C)C(=O)N[C@]1(C)CCCCCCC=CCOC(=O)N2CC[C@@](C(=O)N[C@@H](Cc3ccccc3)C(=O)N[C@@H](Cc3c[nH]c4ccccc34)C(=O)N[C@@H](CCC(N)=O)C(N)=O)(C2)NC(=O)[C@H](C(C)C)NC(=O)[C@H](Cc2cccc(C(N)=O)c2)NC(=O)[C@H](C)NC(=O)[C@H](C)NC(=O)[C@H](CC(=O)O)NC(=O)[C@H](CC(=O)O)NC1=O` [I-109, Ac-Phe-Asp-Ala-R8-Asp-Asp-Ala-Ala-3CBMF-Val-PyrS-Phe-Trp-Gln-NH2]: the “CHI Log D” value in “CHI Log D procedure” amounted to 1.223. The compound further had an EC50 in data set [1] of 8.82 µM.

With `CC(=O)N[C@@H](Cc1ccccc1)C(=O)N[C@@H](CC(=O)O)C(=O)N[C@@H](C)C(=O)N[C@]1(C)CCCCCCC=CCOC(=O)N2CC[C@@](C(=O)N[C@@H](Cc3ccc(C(=O)O)cc3)C(=O)N[C@@H](Cc3c[nH]c4ccccc34)C(=O)N[C@@H](CCC(N)=O)C(N)=O)(C2)NC(=O)[C@H](C(C)C)NC(=O)[C@H](Cc2ccccc2)NC(=O)[C@H](C)NC(=O)[C@H](C)NC(=O)[C@H](CC(=O)O)NC(=O)[C@H](CC(=O)O)NC1=O` [I-110, Ac-Phe-Asp-Ala-R8-Asp-Asp-Ala-Ala-Phe-Val-PyrS-4COOHF-Trp-Gln-NH2], the “CHI Log D” value in “CHI Log D procedure” was determined as 0.769. Also, in data set [1], a half-maximal response (EC50) required 8.5 µM.

Turning to `CC(=O)N[C@@H](Cc1ccccc1)C(=O)N[C@@H](CC(=O)O)C(=O)N[C@@H](C)C(=O)N[C@]1(C)CCCCCCC=CCOC(=O)N2CC[C@@](C(=O)N[C@@H](Cc3ccc(C(=O)O)cc3)C(=O)N[C@@H](Cc3c[nH]c4ccccc34)C(=O)N[C@@H](CCC(N)=O)C(N)=O)(C2)NC(=O)[C@H](C(C)C)NC(=O)[C@H](Cc2ccccc2)NC(=O)[C@H](C)NC(=O)[C@H](C)NC(=O)[C@H](CC(=O)O)NC(=O)[C@H](CC(=O)O)NC1=O` [I-111, Ac-Phe-Asp-Ala-R8-Asp-Asp-Ala-Ala-Phe-Val-PyrS-4COOHF-Trp-Gln-NH2], the “CHI Log D” value in “CHI Log D procedure” stood at 0.779. The compound also showed an EC50 in data set [1] of 7.64 µM.

Turning to `CC(=O)N[C@@H](Cc1ccccc1)C(=O)N[C@@H](CC(=O)O)C(=O)N[C@@H](C)C(=O)N[C@]1(C)CCCCCCC=CCOC(=O)N2CC[C@@](C(=O)N[C@@H](Cc3ccccc3)C(=O)N[C@@H](Cc3c[nH]c4ccccc34)C(=O)N[C@@H](CCC(N)=O)C(N)=O)(C2)NC(=O)[C@H](C(C)C)NC(=O)[C@H](Cc2ccc3ccccc3c2)NC(=O)[C@H](C)NC(=O)[C@H](C)NC(=O)[C@H](CC(=O)O)NC(=O)[C@H](CC(=O)O)NC1=O` [I-113, Ac-Phe-Asp-Ala-R8-Asp-Asp-Ala-Ala-2NapA-Val-PyrS-Phe-Trp-Gln-NH2], in the data set “CHI Log D procedure”, the “CHI Log D” value was 1.435. This compound also came in with an EC50 in data set [1] of 6.2 µM.

Take `CC(=O)N[C@@H](Cc1ccccc1)C(=O)N[C@@H](CC(=O)O)C(=O)N[C@@H](C)C(=O)N[C@]1(C)CCCCCCC=CCOC(=O)N2CC[C@@](C(=O)N[C@@H](Cc3ccccc3)C(=O)N[C@@H](Cc3c[nH]c4ccccc34)C(=O)N[C@@H](CCC(N)=O)C(N)=O)(C2)NC(=O)[C@H](C(C)C)NC(=O)[C@H](CCc2ccc(O)cc2)NC(=O)[C@H](C)NC(=O)[C@H](C)NC(=O)[C@H](CC(=O)O)NC(=O)[C@H](CC(=O)O)NC1=O` [I-119, Ac-Phe-Asp-Ala-R8-Asp-Asp-Ala-Ala-hTyr-Val-PyrS-Phe-Trp-Gln-NH2]: the “CHI Log D” value in the data set “CHI Log D procedure” is listed as 1.17. The EC50 in data set [1] amounted to 4.94 µM.

`CC(=O)N1CCC[C@]12CC=CCCCC1(CCCC=CCCCCCC[C@@](C)(C(=O)N[C@@H](Cc3ccccc3)C(=O)N[C@@H](Cc3c[nH]c4ccccc34)C(=O)N[C@@H](CCC(N)=O)C(N)=O)NC(=O)[C@H](C(C)C)NC(=O)[C@H](Cc3ccccc3)NC(=O)[C@H](C)NC(=O)[C@H](C)NC(=O)[C@H](CC(N)=O)NC(=O)[C@H](CC(=O)O)NC1=O)NC(=O)[C@H](C)NC(=O)[C@H](CC(=O)O)NC2=O` (stereo partly drawn) [I-124, Ac-PL3-Asp-Ala-B5-Asp-Asn-Ala-Ala-Phe-Val-S8-Phe-Trp-Gln-NH2]: the “CHI Log D” value in “CHI Log D procedure” worked out at 2.252. In data set [1], this compound yielded an EC50 of 1.28 µM.

As for `CC(=O)N1CCC[C@]12CC=CCCCC1(CCCC=CCCCCCC[C@@](C)(C(=O)N[C@@H](Cc3ccccc3)C(=O)N[C@@H](Cc3c[nH]c4ccccc34)C(=O)N[C@@H](CCC(N)=O)C(N)=O)NC(=O)[C@H](C(C)C)NC(=O)[C@H](Cc3ccccc3)NC(=O)[C@H](C)NC(=O)[C@H](C)NC(=O)[C@H](CCC(N)=O)NC(=O)[C@H](CC(=O)O)NC1=O)NC(=O)[C@H](C)NC(=O)[C@H](CC(=O)O)NC2=O` (stereo partly drawn) [I-126, Ac-PL3-Asp-Ala-B5-Asp-Gln-Ala-Ala-Phe-Val-S8-Phe-Trp-Gln-NH2], the “CHI Log D” value in the data set “CHI Log D procedure” amounted to 2.239. The EC50 in data set [1] stood at 1.48 µM.

Turning to `CC(=O)N1CCC[C@]12CC=CCCCC1(CCCC=CCOC(=O)N(C)CCC[C@@](C)(C(=O)N[C@@H](Cc3ccccc3)C(=O)N[C@@H](Cc3c[nH]c4ccccc34)C(=O)N[C@@H](CCC(N)=O)C(N)=O)NC(=O)[C@H](C(C)C)NC(=O)[C@H](Cc3ccccc3)NC(=O)[C@H](C)NC(=O)[C@H](C)NC(=O)[C@H](CCC(=O)O)NC(=O)[C@H](CC(=O)O)NC1=O)NC(=O)[C@H](C)NC(=O)[C@H](CC(=O)O)NC2=O` (stereo partly drawn) [I-130, Ac-PL3-Asp-Ala-B5-Asp-Glu-Ala-Ala-Phe-Val-SeN-Phe-Trp-Gln-NH2], the “CHI Log D” value in the data set “CHI Log D procedure” came out at 1.346. For the same compound, in data set [1], a half-maximal response (EC50) required 0.797 µM.
